Assay results reported in article PMC5891627, “Binding Specificity of Two PBPs in the Yellow Peach Moth Conogethes punctiferalis (Guenée)” (Frontiers in Physiology, 2018).

Experiments:
CpunPBP5 = CpunPBP5 (Conogethes punctiferalis, UniProt A0A0M4FIS7); assay: Fluorescence displacement (competitive, 1-NPN) binding assay; conditions: for IC50 / Kd / activity at 6000 µM: pH = 7.4; for IC50: 1-NPN 2 μM as fluorescent reporter, 2 μM protein, read-out: IC50; for Kd: calculated from IC50: KD = [IC50]/(1+[1-NPN]/K1-NPN), read-out: KD (μM), calculated dissociation constant; for binding affinity to CpunPBP5 (in words): ranking among the 24 tested ligands; for activity at 6000 µM: ratio of fluorescence intensity at the pheromone concentration of 6 mM to the initial fluorescence intensity, read-out: Int (%)
Sequence of CpunPBP5 (A0A0M4FIS7 entry or part of it): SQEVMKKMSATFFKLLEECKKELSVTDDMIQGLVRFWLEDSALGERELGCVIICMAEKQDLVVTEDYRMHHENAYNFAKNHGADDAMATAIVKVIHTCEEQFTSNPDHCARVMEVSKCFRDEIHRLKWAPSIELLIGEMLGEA
Method: (§1) The fluorescence intensity was recorded on a FluoroMax-4 spectrophotometer (Horiba Scientific, USA) at room temperature using a 1 cm light path fluorimeter quartz cuvette. The fluorescent probe N-phenyl-1-naphthylamine (1-NPN) and all the tested chemicals were dissolved in HPLC purity methanol. The final concentration was prepared 1 mM. […] The fluorescence of 1-NPN was excited at 337 nm and emission spectra were recorded between […]. […] The GraphPad Prism 5 (GraphPad Software, Inc.) was used to estimate the K1−NPN (KD of complex protein /1-NPN) values by nonlinear regression for a unique site of binding. It was assumed that the proteins were 100% active, with a stoichiometry of 1:1 (protein:ligand) at saturation. […] In the equation, [1-NPN] is the free concentration of 1-NPN, and K1−NPN is the dissociation constant of the complex protein /1-NPN.

CpunPBP2 = CpunPBP2 (Conogethes punctiferalis, UniProt A0A1D6X8W8); assay: as above; conditions: for IC50 / Kd / activity at 6000 µM: pH = 7.4; for IC50: 1-NPN 2 μM as fluorescent reporter, 2 μM protein, read-out: IC50; for Kd: calculated from IC50: KD = [IC50]/(1+[1-NPN]/K1-NPN), read-out: KD (μM), calculated dissociation constant; for binding affinity to CpunPBP2 (in words): ranking among the 24 tested ligands; for activity at 6000 µM: ratio of fluorescence intensity at the pheromone concentration of 6 mM to the initial fluorescence intensity, read-out: Int (%)
Sequence of CpunPBP2 (A0A1D6X8W8 entry or part of it): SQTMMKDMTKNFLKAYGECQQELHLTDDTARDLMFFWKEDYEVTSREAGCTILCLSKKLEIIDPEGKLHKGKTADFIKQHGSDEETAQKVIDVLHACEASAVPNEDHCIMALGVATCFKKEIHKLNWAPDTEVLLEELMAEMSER
Method: as §1

yellow peach moth males = system: yellow peach moth males; parameters: method as in Liu et al., [1994]; conditions: ref Liu et al., [1994]; cited from earlier work
[1] = target: CpunPBP2-m4 (CpunPBP2-Phe115 mutant) (Conogethes punctiferalis, UniProt A0A1D6X8W8, F139Y); assay: Fluorescence displacement binding assay of mutants; conditions: for Kd: read-out: KD, calculated dissociation constant
Sequence of CpunPBP2-m4 (CpunPBP2-Phe115 mutant) (A0A1D6X8W8 entry or part of it F139Y): as the sequence (A0A1D6X8W8 entry or part of it) above, with F118Y counted along it
Method: (§2) The fluorescence intensity was recorded on a FluoroMax-4 spectrophotometer (Horiba Scientific, USA) at room temperature using a 1 cm light path fluorimeter quartz cuvette. The fluorescent probe N-phenyl-1-naphthylamine (1-NPN) and all the tested chemicals were dissolved in HPLC purity methanol. The final concentration was prepared 1 mM. To measure the affinity of florescent ligand 1-NPN to each protein, a 2 μM solution of the protein in 50 mM Tris-HCl, pH 7.4, was titrated with aliquots of 1 mM ligand in methanol to final concentrations of 1–8 μM. The fluorescence of 1-NPN was excited at 337 nm and emission spectra were recorded between […] and 450 nm. The affinity of other ligands was measured in competitive binding assays, using 1-NPN as the fluorescent reporter at 2 μM concentration and different concentrations of each ligands. The GraphPad Prism 5 (GraphPad Software, Inc.) was used to estimate the K1−NPN (KD of complex protein /1-NPN) values by nonlinear regression for a unique site of binding. It was assumed that the proteins were 100% active, with a stoichiometry of 1:1 (protein:ligand) at saturation. For other competitor ligands, the dissociation constants were calculated from the corresponding IC50 (concentrations of ligands halving the initial fluorescence value of 1-NPN) values using Microsoft Office Excel 2010, with the formula: KD = [IC50]/(1+[1-NPN]/K1−NPN). In the equation, [1-NPN] is the free concentration of 1-NPN, and K1−NPN is the dissociation constant of the complex protein /1-NPN.
(§3) Four mutants of CpunPBP2 and four mutants of CpunPBP5 were developed using the QuikChange Lightning Site-Directed Mutagenesis Kit (Stratagene, USA). The mutational primers were designed manually. Mutation sites are underlined in Table S2. The CpunPBP2/pGEM-T Easy construct was used as a template. The PCR conditions were 95°C for 5 min, followed by 30 cycles of 95°C for 30 s, 58°C for 30 s and 68°C for 1 min, and final extension at 72°C for 10 min. The correct insertion of mutation was subcloned into pGEM-T Easy vector (TransGen, Beijing, China). The expression system and fluorescence binding assay were conducted as mentioned for wild type proteins.
(§4) Supplementary file Image3.jpg: Figure S3 SDS-PAGE analyses of purified CpunPBP2 and CpunPBP5 with their mutants. M: marker protein. (A)1:CpunPBP2 original protein. (A)2: CpunPBP2-Phe9 mutant (CpunPBP2-m1). (A)3: CpunPBP2-Phe33 mutant (CpunPBP2-m2). (A)4: CpunPBP2-Ser53 mutant (CpunPBP2-m3). (A)5: CpunPBP2-Phe115 mutant (CpunPBP2-m4). (B)1:CpunPBP5 original protein. (B)2: CpunPBP5-Ser9 mutant (CpunPBP5-m1). (B)3: CpunPBP5-Phe12 mutant (CpunPBP5-m2). (B)4: CpunPBP5-Val115 mutant (CpunPBP5-m3). (B)5: CpunPBP5-Arg120 mutant (CpunPBP5-m4). Click here for additional data file.

[2] = target: CpunPBP5-m4 (CpunPBP5-Arg120 mutant) (Conogethes punctiferalis, UniProt A0A0M4FIS7, R145K); assay: Fluorescence displacement binding assay of mutants
Sequence of CpunPBP5-m4 (CpunPBP5-Arg120 mutant) (A0A0M4FIS7 entry or part of it R145K): as the sequence (A0A0M4FIS7 entry or part of it) above, with R120K counted along it
Method: as §2, §3, §4

[3] = target: CpunPBP5-m1 (CpunPBP5-Ser9 mutant) (Conogethes punctiferalis, UniProt A0A0M4FIS7, S34T); assay: Fluorescence displacement binding assay of mutants
Sequence of CpunPBP5-m1 (CpunPBP5-Ser9 mutant) (A0A0M4FIS7 entry or part of it S34T): as the sequence (A0A0M4FIS7 entry or part of it) above, with S9T counted along it
Method: as §2, §3, §4

[4] = target: CpunPBP2-m2 (CpunPBP2-Phe33 mutant) (Conogethes punctiferalis, UniProt A0A1D6X8W8, F57Y); assay: Fluorescence displacement binding assay of mutants; conditions: for Kd: read-out: KD, calculated dissociation constant
Sequence of CpunPBP2-m2 (CpunPBP2-Phe33 mutant) (A0A1D6X8W8 entry or part of it F57Y): as the sequence (A0A1D6X8W8 entry or part of it) above, with F36Y counted along it
Method: as §2, §3, §4

[5] = target: CpunPBP5-m3 (CpunPBP5-Val115 mutant) (Conogethes punctiferalis, UniProt A0A0M4FIS7, V140A); assay: Fluorescence displacement binding assay of mutants
Sequence of CpunPBP5-m3 (CpunPBP5-Val115 mutant) (A0A0M4FIS7 entry or part of it V140A): as the sequence (A0A0M4FIS7 entry or part of it) above, with V115A counted along it
Method: as §2, §3, §4

[6] = target: CpunPBP2-m3 (CpunPBP2-Ser53 mutant) (Conogethes punctiferalis, UniProt A0A1D6X8W8, S77Y); assay: Fluorescence displacement binding assay of mutants; conditions: for Kd: read-out: KD, calculated dissociation constant
Sequence of CpunPBP2-m3 (CpunPBP2-Ser53 mutant) (A0A1D6X8W8 entry or part of it S77Y): as the sequence (A0A1D6X8W8 entry or part of it) above, with S56Y counted along it
Method: as §2, §3, §4

[7] = target: CpunPBP5-m2 (CpunPBP5-Phe12 mutant) (Conogethes punctiferalis, UniProt A0A0M4FIS7, F37Y); assay: Fluorescence displacement binding assay of mutants
Sequence of CpunPBP5-m2 (CpunPBP5-Phe12 mutant) (A0A0M4FIS7 entry or part of it F37Y): as the sequence (A0A0M4FIS7 entry or part of it) above, with F12Y counted along it
Method: as §2, §3, §4

[8] = target: CpunPBP2-m1 (CpunPBP2-Phe9 mutant) (Conogethes punctiferalis, UniProt A0A1D6X8W8, F33Y); assay: Fluorescence displacement binding assay of mutants; conditions: for Kd: read-out: KD, calculated dissociation constant
Sequence of CpunPBP2-m1 (CpunPBP2-Phe9 mutant) (A0A1D6X8W8 entry or part of it F33Y): as the sequence (A0A1D6X8W8 entry or part of it) above, with F12Y counted along it
Method: as §2, §3, §4

Compound | IC50 (CpunPBP5) | Kd (CpunPBP5) | binding affinity to CpunPBP5 (in words) (CpunPBP5) | activity at 6000 µM (CpunPBP5) | IC50 (CpunPBP2) | Kd (CpunPBP2) | binding affinity to CpunPBP2 (in words) (CpunPBP2) | activity at 6000 µM (CpunPBP2) | attraction of males in field trials (yellow peach moth males) | IC50 [1] | Kd [1] | IC50 [2] | Kd [2] | IC50 [3] | Kd [3] | IC50 [4] | Kd [4] | IC50 [5] | Kd [5] | IC50 [6] | other results
CCCCC/C=C\CCCCCCCCC=O [Z10-16:Ald, (Z)-10-hexadecenal] | 970 ± 20 nM | 0.36 ± 0.01 µM | highest binding ability | 40.6 ± 1.39% | 980 ± 90 nM | 0.42 ± 0.04 µM | highest binding ability | 42.5 ± 1.88% | do not attract males | 15400 ± 3180 nM | 10200 ± 2110 nM | 2570 ± 550 nM | 1040 ± 220 nM | 1410 ± 20 nM | 720 ± 10 nM | 790 ± 30 nM | 360 ± 10 nM | 1620 ± 40 nM | 820 ± 20 nM | 920 ± 50 nM | binding capacity of mutant compared with CpunPBP5 (in words) ([2]; mutant CpunPBP5-m4 vs wild type): decreased considerably; Kd [6]: 100 nM; IC50 [7]: 1660 ± 30 nM; Kd [7]: 900 ± 20 nM; IC50 [8]: 760 ± 10 nM; Kd [8]: 210 nM
CCCCC/C=C/CCCCCCCCC=O [E10-16:Ald, (E)-10-hexadecenal] | 1330 ± 60 nM | 0.6 ± 0.02 µM | highest binding ability | 40 ± 1.53% | 940 ± 30 nM | 0.4 ± 0.01 µM | highest binding ability | 39.5 ± 0.83% | – | 30000 ± 17600 nM | 19900 ± 11700 nM | 2610 ± 780 nM | 1060 ± 320 nM | 1630 ± 10 nM | 720 nM | 1180 ± 200 nM | 540 ± 90 nM | 3640 ± 100 nM | 1850 ± 160 nM | 1040 ± 130 nM | binding affinity of mutant compared with CpunPBP5 (in words) ([5]; mutant CpunPBP5-m3 vs wild type): decreased the most; Kd [6]: 110 ± 10 nM; IC50 [7]: 2730 ± 330 nM; Kd [7]: 1490 ± 180 nM; IC50 [8]: 800 ± 20 nM; Kd [8]: 220 ± 10 nM
CCCCCCCCCCCCCCCC=O [Hexadecanal] | 4510 ± 80 nM | 3.65 ± 0.07 µM | – | 46.83 ± 0.18% | 1840 ± 20 nM | 1.07 ± 0.01 µM | – | 34.03 ± 0.34% | do not attract males | – | – | – | – | – | – | – | – | – | – | – | –
